Assay results taken from patent US9688637B2, “3-amidobenzamides and uses thereof for increasing cellular levels of A3G and other A3 family members” (Northwestern University, priority 2014, dated 2017).

What was measured:
BHPrE = assay: Cancer cell death, cell numbers vs DMSO; assay type: cell-based; conditions: 6 μM, 8 days; prostate cell line, wild-type functional p53
Source text: (§1) To test the effect of the compounds described below on cancer cell death, cell lines derived from different types of cancer were studied in vitro. MCF10A, MCF7, T47D, MDA-MB-157 and MDA-MB-231 are breast cancer cell lines. NHPrE, BHPrE, RWPE1, DU145, and PC3 cells are prostate cell lines. HeLa is cervical cancer cell line. HEK293 is human embryonic kidney cell line lacking A3B expression. There are differences among these cancer cell lines in p53 expression (44-46). MCF10A, MCF7, NHPrE, BHPrE and HEK293 cells have wild-type and functional p53. RWPE1 and HeLa cells have wild-type p53 but the p53 protein in these cell line is not functional because of effects of human papilloma virus E6 protein. T47D, MDA-MB-231, and DU145 cell lines have mutant p53, while MDA-MB-157 and PC3 cells have no p53 expression. 25,000 cells per well were plated in 6 well plates. In the case of HEK293 cells. 500,000 cells per well in 6-well plates were used instead. After 24 hrs, culture medium was replaced with new medium containing either DMSO as control or one of the compounds described below (6 μM per well concentration). After 8 days incubation with compounds, cell numbers were counted from each well and plotted with number of cells from DMSO treated sample as 100%. We performed the experiments at least twice. HEK293, MCF7 and T47D cells they were maintained for 16 days with compounds instead of 8 days.

DU145 = assay: Cancer cell death, cell numbers vs DMSO; assay type: cell-based; conditions: 6 μM, 8 days; prostate cell line, mutant p53
Source text: as §1

MCF10A = assay: Cancer cell death, cell numbers vs DMSO; assay type: cell-based; conditions: 6 μM, 8 days; breast cell line, wild-type functional p53
Source text: as §1

MDA-MB-231 = assay: Cancer cell death, cell numbers vs DMSO; assay type: cell-based; conditions: 6 μM, 8 days; breast cancer cell line, mutant p53
Source text: as §1

PC3 = assay: Cancer cell death, cell numbers vs DMSO; assay type: cell-based; conditions: 6 μM, 8 days; prostate cell line, no p53 expression
Source text: as §1

NHPrE = assay: Cancer cell death, cell numbers vs DMSO; assay type: cell-based; conditions: 6 μM, 8 days; prostate cell line, wild-type functional p53
Source text: as §1

RWPE1 = assay: Cancer cell death, cell numbers vs DMSO; assay type: cell-based; conditions: 6 μM, 8 days; prostate cell line, p53 not functional
Source text: as §1

T47D = assay: Cancer cell death, cell numbers vs DMSO; assay type: cell-based; conditions: 6 μM, 16 days; breast cancer cell line, mutant p53
Source text: as §1

MDA-MB-157 = assay: Cancer cell death, cell numbers vs DMSO; assay type: cell-based; conditions: 6 μM, 8 days; breast cancer cell line, no p53 expression
Source text: as §1

MCF7 = assay: Cancer cell death, cell numbers vs DMSO; assay type: cell-based; conditions: 6 μM, 16 days; breast cancer cell line, wild-type functional p53
Source text: as §1

HeLa = assay: Cancer cell death, cell numbers vs DMSO; assay type: cell-based; conditions: 6 μM, 8 days; cervical cancer cell line, p53 not functional
Source text: as §1

Wild-type HIV-1 = assay: A3F-mediated restriction of wild-type HIV-1; virus from 293T stably expressing A3F, TZM-bl readout; assay type: cell-based; conditions: Human immunodeficiency virus 1, HEK-293T, read-out: A3F-mediated Restriction by Compounds on Wild-type HIV-1 (% of HIV replication relative to DMSO treated Control)
Experimental: To test the effect of compounds shown to boost A3G-Luc levels in our screening systems on inhibition of wild-type HIV-1 replication by A3G or A3F, 293T cell lines stably expressing A3G or A3F were plated (750,000 cells per well in 6-well plate). At 24 hrs post plating, 1.5 μg of a wild-type (Vif-positive) HIV-1 proviral vector, NL4.3, was transfected into the 293T stable cell lines expressing either A3G or A3F. At 4 hrs post transfection, either DMSO as a control or an individual compound from series described below was added into the culture medium at a 10 μM concentration. At 1 day post transfection, supernatant fluids containing viral particles were filtered through […] filter to remove cellular debris. To test the effect of compound on HIV-1 replication, TZM-bl indicator cells were plated at a density of 10,000 cells/well in a 96 well culture plate 24 hrs prior to infection. TZM-bl indicator cells express luciferase gene under the control of HIV LTR promoter and are routinely used to measure HIV-1 replication capability. On the day of infection, the culture medium was removed and the cells inoculated with equal amount of HIV-1 particles in triplicate with 100 μl of viral supernatants in culture medium containing 20 μg/ml DEAE-dextran. After 24 hrs of incubation, culture medium was removed from each well and replaced with 100 μl of Britelite Plus luciferase assay substrate. Following 5 min. of incubation at room temperature, 75 μl of each cell lysate was transferred to a 96-well OptiPlate 96 and luminescence was measured in a VICTOR X2 Multilabel Reader as described above. Relative infectivity was calculated by plotting luciferase activity from viral particle from DMSO treated A3G or A3F cell lines as 100%. We only tested effect A3F- or A3G mediated restriction of HIV-1 replication by compounds boosting luciferase activity by more than 160% compared to DMSO control sample.

A3G-Luc/Vif = A3G-Luc/Vif luciferase screen in 293T cells stably co-expressing A3G-Luc and HIV-1 Vif; assay type: cell-based, human; conditions: for Vif-A3G-Luc Activity (% of RLUs compared to DMSO treated control): 10 μM, 48 hrs, DMSO = 100%

For `COc1ccc(C(=O)Nc2ccc(Cl)c(Cl)c2)cc1NC(=O)CC1CC1` [NU-466], the “cell killing (cell numbers vs DMSO)” value (BHPrE) was “not killed”, the “cell killing (cell numbers vs DMSO)” value (DU145) was “kill” and the “cell killing (cell numbers vs DMSO)” value (MCF10A) was “not killed”. For the same compound, the “cell killing (cell numbers vs DMSO)” value (MDA-MB-231) was “kill”, the “cell killing (cell numbers vs DMSO)” value (PC3) was “kill” and the “cell killing (cell numbers vs DMSO)” value (NHPrE) was “not killed”. For the same compound, the “cell killing (cell numbers vs DMSO)” value (RWPE1) was “kill”, the “cell killing (cell numbers vs DMSO)” value (T47D) was “kill” and the “cell killing (cell numbers vs DMSO)” value (MDA-MB-157) was “kill”. The “cell killing (cell numbers vs DMSO)” value (MCF7) was “not killed”, the “cell killing (cell numbers vs DMSO)” value (HeLa) was “kill” and the activity at 10 µM (Wild-type HIV-1) was 59%. The “Vif-A3G-Luc Activity (% of RLUs compared to DMSO treated control)” value (A3G-Luc/Vif) was 202%.

`COc1ccc(C(=O)Nc2ccc(Cl)c(Cl)c2)cc1NC(=O)C1CCC1` [NU-302] was tested, and the “cell killing (cell numbers vs DMSO)” value (BHPrE) was “not killed”, the “cell killing (cell numbers vs DMSO)” value (DU145) was “kill” and the “cell killing (cell numbers vs DMSO)” value (MCF10A) was “not killed”. The “cell killing (cell numbers vs DMSO)” value (MDA-MB-231) was “kill”, the “cell killing (cell numbers vs DMSO)” value (PC3) was “kill” and the “cell killing (cell numbers vs DMSO)” value (NHPrE) was “not killed”. For the same compound, the “cell killing (cell numbers vs DMSO)” value (RWPE1) was “kill”, the “cell killing (cell numbers vs DMSO)” value (T47D) was “kill” and the “cell killing (cell numbers vs DMSO)” value (MDA-MB-157) was “kill”. For the same compound, the “cell killing (cell numbers vs DMSO)” value (MCF7) was “not killed”, the “cell killing (cell numbers vs DMSO)” value (HeLa) was “kill” and the activity at 10 µM (Wild-type HIV-1) was 58%. For the same compound, the “Vif-A3G-Luc Activity (% of RLUs compared to DMSO treated control)” value (A3G-Luc/Vif) was 167%.

`COc1ccc(C(=O)Nc2ccc(Cl)c(Cl)c2)cc1NC(=O)C(C)C` [NU-52] was tested, and the “cell killing (cell numbers vs DMSO)” value (BHPrE) was “not killed”, the “cell killing (cell numbers vs DMSO)” value (DU145) was “kill” and the “cell killing (cell numbers vs DMSO)” value (MCF10A) was “not killed”. For the same compound, the “cell killing (cell numbers vs DMSO)” value (MDA-MB-231) was “kill”, the “cell killing (cell numbers vs DMSO)” value (PC3) was “kill” and the “cell killing (cell numbers vs DMSO)” value (NHPrE) was “not killed”. The “cell killing (cell numbers vs DMSO)” value (RWPE1) was “kill”, the “cell killing (cell numbers vs DMSO)” value (T47D) was “kill” and the “cell killing (cell numbers vs DMSO)” value (MDA-MB-157) was “kill”. The “cell killing (cell numbers vs DMSO)” value (MCF7) was “not killed”, the “cell killing (cell numbers vs DMSO)” value (HeLa) was “kill” and the activity at 10 µM (Wild-type HIV-1) was 57%. The “Vif-A3G-Luc Activity (% of RLUs compared to DMSO treated control)” value (A3G-Luc/Vif) was 135% and the “increase of A3G” value (A3G-Luc/Vif; 293T stably expressing A3G-Luc, with Vif (FIG. 6)) was “about 3 fold”.
